Measurements: article PMC12373508, “D-cysteine impairs tumour growth by inhibiting cysteine desulfurase NFS1” (Nature Metabolism, 2025)

What was measured:
NFS1 [1] = biological target: T1, NFS1 (Homo sapiens, UniProt Q9Y697); assay: reconstituted [2Fe-2S] cluster synthesis by circular dichroism; UV/Vis of Cys-ketimine formation; assay type: biochemical
Target sequence in this assay (Q9Y697 56-457, other chains not shown): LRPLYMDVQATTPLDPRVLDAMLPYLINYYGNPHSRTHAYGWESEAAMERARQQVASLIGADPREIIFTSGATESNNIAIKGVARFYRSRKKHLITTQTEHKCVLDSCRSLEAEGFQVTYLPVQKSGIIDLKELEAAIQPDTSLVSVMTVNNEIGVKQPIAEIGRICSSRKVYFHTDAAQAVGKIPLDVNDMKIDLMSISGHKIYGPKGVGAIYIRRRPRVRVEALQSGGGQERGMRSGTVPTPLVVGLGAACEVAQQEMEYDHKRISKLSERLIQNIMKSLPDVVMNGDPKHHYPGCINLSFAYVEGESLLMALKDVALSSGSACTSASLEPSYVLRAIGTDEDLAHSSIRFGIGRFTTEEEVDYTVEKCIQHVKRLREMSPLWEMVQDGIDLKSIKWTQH
Target sequence in this assay (Q9HD34 whole entry partner, other chains not shown): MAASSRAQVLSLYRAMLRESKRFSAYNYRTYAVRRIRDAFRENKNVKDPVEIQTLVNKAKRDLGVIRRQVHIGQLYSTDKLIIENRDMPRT
Target sequence in this assay (Q16595 81-210 partner, other chains not shown): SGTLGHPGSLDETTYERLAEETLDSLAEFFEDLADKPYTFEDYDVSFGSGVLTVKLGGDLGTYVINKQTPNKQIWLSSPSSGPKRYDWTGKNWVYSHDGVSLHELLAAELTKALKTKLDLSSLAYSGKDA
Target sequence in this assay (Q9H1K1 35-167 partner, other chains not shown): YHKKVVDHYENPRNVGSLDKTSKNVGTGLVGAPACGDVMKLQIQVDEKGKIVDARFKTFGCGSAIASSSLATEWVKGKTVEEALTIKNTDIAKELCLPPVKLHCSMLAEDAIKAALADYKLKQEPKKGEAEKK

NFS1 [2] = biological target: NFS1 (Homo sapiens, UniProt Q9Y697, C381S); assay: microscale thermophoresis; assay type: binding
NFS1 [3] = biological target: T1, NFS1; assay: X-ray crystal structure after incubation with […] ligand; assay type: binding
Target sequence in this assay (Q9Y697 56-457): as the sequence (Q9Y697 56-457, other chains not shown) above
Target sequence in this assay (Q9HD34 whole entry partner): as the sequence (Q9HD34 whole entry partner, other chains not shown) above
Target sequence in this assay (P0A6A8 2-78 partner): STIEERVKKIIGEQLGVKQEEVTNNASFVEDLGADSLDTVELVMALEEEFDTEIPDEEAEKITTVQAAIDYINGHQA
Target sequence in this assay (Q9H1K1 35-167 partner): as the sequence (Q9H1K1 35-167 partner, other chains not shown) above

Sequence of NFS1 (Homo sapiens, UniProt Q9Y697, C381S) (Q9HD34 whole entry, other chains not shown): as the sequence (Q9HD34 whole entry partner, other chains not shown) above
Sequence of NFS1 (Homo sapiens, UniProt Q9Y697, C381S) (Q9Y697 56-457 C381S, other chains not shown): as the sequence (Q9Y697 56-457, other chains not shown) above, with C326S counted along it

Row | SMILES | reconstituted [2Fe-2S] cluster synthesis by circular dichroism; UV/Vis of Cys-ke (NFS1 [1]) | Kd (NFS1 [2]) [µM] | X-ray crystal structure after incubation with 1 mM ligand (NFS1 [3])
1 | N[C@H](CS)C(=O)O [D-Cys, D-cysteine] | when D-Cys is present in excess, the NFS1 enzymatic activity is inhibited | 25.6 | –
2 | C#CC[C@H](N)C(=O)O [PG, L-propargylglycine] | – | – | in the NFS1 active site, we observed an external L-propargylglycine-ketimine
3 | N[C@@H](CS)C(=O)O [L-Cys, L-cysteine] | – | 2.15 | –
